Converted amounts (≈) assume the structure as drawn. Read-outs that look alike come from different tables or passages of the source.
What was measured:
[1] = Hydrophobicity by retention in analytical RP-HPLC (% MeCN at peak elution); type: physicochemical; conditions: for % MeCN at Elution, Aeris Peptide: Phenomenex Aeris Peptide XB-C18 column; for % MeCN at Elution, Aeris Peptide / % MeCN at Elution, Luna Omega / % MeCN at Elution, Supelco Discovery: gradient 0→60% B during 15 min; for % MeCN at Elution, Luna: Phenomenex Luna C18(2) column, RP-HPLC gradient 0→60% B during 15 min, relative hydrophobicity; for % MeCN at Elution, Luna Omega: Phenomenex Luna Omega Polar C18 column; for % MeCN at Elution, Supelco Discovery: Supelco Discovery BIO Wide pore C18 column
In short: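 Retention times measured on four C18 columns (Luna C18(2), Luna Omega Polar C18, Aeris Peptide XB-C18, Discovery BIO Wide pore) with MeCN–H2O/0.1% TFA, linear 0–60% B over 15 min, 0.8 mL/min, UV 220 nm. % MeCN at elution = 0.95(0.6Rt/15 min)+0.05(1−0.6Rt/15 min).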

K. pneumoniae ATCC 13883 = type: cell-based
In short: (§1)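 Minimum inhibitory concentrations were recorded following 20 h of incubation with shaking at 35 °C (±2 °C), using ~5 × 10^5 CFU/mL in Mg^2+/Ca^2+-supplemented (4 mg/L each) Mueller-Hinton broth.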

E. faecalis ATCC 29212 = type: cell-based; conditions: ATCC 29212, 20 h
In short: as §1

A. baumannii ATCC 19606 = type: cell-based, Acinetobacter baumannii; conditions: ATCC 19606, 20 h
In short: as §1

A. baumannii NMI 3658/17 = type: cell-based, Acinetobacter baumannii; conditions: NMI 3658/17, 20 h
In short: as §1

S. aureus ATCC 29213 = type: cell-based, Staphylococcus aureus; conditions: ATCC 29213, 20 h
In short: as §1

P. aeruginosa PAO1 = type: cell-based, Pseudomonas aeruginosa; conditions: PAO1, 20 h
In short: as §1

[2] = tested on: P. aeruginosa NMI 7197/19; type: cell-based, Pseudomonas aeruginosa; conditions: NMI 7197/19, 20 h
In short: as §1

E. coli NMI 3371/16 = type: cell-based, Escherichia coli; conditions: NMI 3371/16, 20 h
In short: as §1

E. coli NMI 3898/15 = type: cell-based, Escherichia coli; conditions: NMI 3898/15, 20 h
In short: as §1

E. coli ATCC 25922 = type: cell-based, Escherichia coli; conditions: ATCC 25922, 20 h
In short: as §1

[3] = tested on: HepG2 cell line ATCC HB-8065; test: Antiproliferative activity on HepG2 cell line (MTT assay); type: cell-based; conditions: inhibition of growth of HepG2 cells, 48 h, MTT; highest concentration tested 1280 µg/mL
Description: (§2) Effect of compounds on mammalian cell viability was estimated on the HepG2 cell line ATCC HB-8065. In brief, HepG2 cells were seeded into flat-bottomed 96-well plates at a concentration of 5000 cells per well. Subsequently, the cells were incubated for 24 h in a humidified incubator (5% CO2, 37 °C). Then, the medium was removed, and the cells were incubated for 48 h in a humidified incubator (5% CO2, 37 °C) with peptidomimetics in serial dilutions. Then, an 3-(4,5-dimethylthiazol-2-yl)-2,5-diphenyltetrazolium bromide (MTT) assay was performed as previously described. In brief, after incubation with the test compounds, the culture medium was removed, and then fresh medium with 0.2 mg/mL MTT was added into each well of the plate. The cells were then incubated (3 h, 37 °C, 5% CO2), followed by removal of the medium with MTT and addition of 200 μL dimethyl sulfoxide at once to each sample. Absorbance of MTT was measured using the spectrophotometer TECAN Infinite M1000 at 540 nm. The relative viability was calculated by using the formula: ODtreated cells × 100/ODcontrol cells. The IC50 values are calculated by using the program Graph Pad Prism® 5.0. For all compounds, the test range was 10–1280 μg/mL.

[4] = as above; type: cell-based; conditions: HepG2 cells; at 1280 µg/mL, value in parenthesis; read-out: HepG2 cell viability at highest concentration tested
Description: as §2

% MeCN at Elution, Aeris Peptide [1] [% MeCN]	% MeCN at Elution, Luna [1] [% MeCN]	% MeCN at Elution, Luna Omega [1] [% MeCN]	% MeCN at Elution, Supelco Discovery [1] [% MeCN]	MIC, KP (K. pneumoniae ATCC 13883; ATCC 13883, 20 h) [µg/mL]	MIC, EF (E. faecalis ATCC 29212) [µg/mL]	MIC, AB (A. baumannii ATCC 19606) [µg/mL]	MIC, A. baumannii NMI 3658/17 (A. baumannii NMI 3658/17) [µg/mL]	MIC, SA (S. aureus ATCC 29213) [µg/mL]	MIC, PA (P. aeruginosa PAO1) [µg/mL]	MIC, P. aeruginosa NMI 7197/19 [2] [µg/mL]	MIC, E. coli NMI 3371/16 (E. coli NMI 3371/16) [µg/mL]	MIC, E. coli NMI 3898/15 (E. coli NMI 3898/15) [µg/mL]	MIC against E. coli (E. coli ATCC 25922) [µM]	MIC, EC (E. coli ATCC 25922) [µg/mL]	HepG2 IC50 [3] [µg/mL]	MIC, KP (K. pneumoniae ATCC 13883)	Structure (SMILES)	viability at 48 h [4] [%]
39.4	41.5	41.9	41.6	64 (≈ 29.7 µM)	>64	8 (≈ 3.72 µM)	4 (≈ 1.86 µM)	32 to 64	32 to 64	>64	4 (≈ 1.86 µM)	8 (≈ 3.72 µM)	0.7 to 1.4	2 to 4	687		NCCCC[C@H](NC(=O)CCN(Cc1ccc(F)cc1)C(=O)[C@H](CCCCN)NC(=O)COCCOCCNC(=O)CCN(Cc1ccc(F)cc1)C(=O)[C@H](CCCCN)NC(=O)CCN(Cc1ccc(F)cc1)C(=O)[C@H](CCCCN)NC(=O)COCCOCCNC(=O)CCN(Cc1ccc(F)cc1)C(=O)[C@H](CCCCN)NC(=O)CCN(Cc1ccc(F)cc1)C(=O)[C@@H](N)CCCCN)C(=O)N(CCC(N)=O)Cc1ccc(F)cc1 [Compound 16, H-[X]2-sPEG2-[X]2-sPEG2-[X]2-NH2]	27
39.2	41.3	42.0	41.3	>64	>64	8 to 16	16 (≈ 6.97 µM)	>64	16 to 64	>64	8 (≈ 3.48 µM)	16 (≈ 6.97 µM)		8 to 16	332		NCCCC[C@H](NC(=O)CCN(Cc1ccc(F)cc1)C(=O)[C@H](CCCCN)NC(=O)CCN(Cc1ccc(F)cc1)C(=O)[C@H](CCCCN)NC(=O)COCCOCCN)C(=O)N(CCC(=O)NCCOCCOCC(=O)N[C@@H](CCCCN)C(=O)N(CCC(=O)N[C@@H](CCCCN)C(=O)N(CCC(=O)N[C@@H](CCCCN)C(=O)N(CCC(=O)NCCOCCOCC(N)=O)Cc1ccc(F)cc1)Cc1ccc(F)cc1)Cc1ccc(F)cc1)Cc1ccc(F)cc1 [Compound 12, H-sPEG2-[X]3-sPEG2-[X]3-sPEG2-NH2]	34
39.4	41.6	41.9	41.7		>64	8 to 16	4 (≈ 2.15 µM)	16 (≈ 8.6 µM)	32 to 64	>64	8 (≈ 4.3 µM)	8 (≈ 4.3 µM)		4 to 8	464	64–>64	NCCCC[C@H](NC(=O)CCN(Cc1ccc(F)cc1)C(=O)[C@H](CCCCN)NC(=O)CCN(Cc1ccc(F)cc1)C(=O)[C@H](CCCCN)NC(=O)CCN(Cc1ccc(F)cc1)C(=O)[C@H](CCCCN)NC(=O)CCN(Cc1ccc(F)cc1)C(=O)[C@H](CCCCN)NC(=O)CCN(Cc1ccc(F)cc1)C(=O)[C@@H](N)CCCCN)C(=O)N(CCC(N)=O)Cc1ccc(F)cc1 [Compound 1, H-[Lys-βNPhe(4-F)]6-NH2]	0
39.0	41.1	41.4	41.2		>64	8 (≈ 3.88 µM)	4 (≈ 1.94 µM)	>64	32 to 64	>64	4 (≈ 1.94 µM)	8 (≈ 3.88 µM)		4 (≈ 1.94 µM)	568	64–>64	NCCCC[C@H](NC(=O)CCN(Cc1ccc(F)cc1)C(=O)[C@H](CCCCN)NC(=O)COCCNC(=O)CCN(Cc1ccc(F)cc1)C(=O)[C@H](CCCCN)NC(=O)CCN(Cc1ccc(F)cc1)C(=O)[C@H](CCCCN)NC(=O)COCCNC(=O)CCN(Cc1ccc(F)cc1)C(=O)[C@H](CCCCN)NC(=O)CCN(Cc1ccc(F)cc1)C(=O)[C@@H](N)CCCCN)C(=O)N(CCC(N)=O)Cc1ccc(F)cc1 [Compound 15, H-[X]2-sPEG1-[X]2-sPEG1-[X]2-NH2]	26
39.8	41.8	42.3	42.0	>64	>64	4 to 8	4 to 8	>64	32 (≈ 15.2 µM)	>64	4 to 8	16 (≈ 7.59 µM)		4 (≈ 1.9 µM)	693		NCCCC[C@H](NC(=O)CCN(Cc1ccc(F)cc1)C(=O)[C@H](CCCCN)NC(=O)CCN(Cc1ccc(F)cc1)C(=O)[C@H](CCCCN)NC(=O)CCOCCOCCOCCOCCNC(=O)CCN(Cc1ccc(F)cc1)C(=O)[C@H](CCCCN)NC(=O)CCN(Cc1ccc(F)cc1)C(=O)[C@H](CCCCN)NC(=O)CCN(Cc1ccc(F)cc1)C(=O)[C@@H](N)CCCCN)C(=O)N(CCC(N)=O)Cc1ccc(F)cc1 [Compound 9, H-[X]3-sPEG4-[X]3-NH2]	9
